Results as given in US10945972B2, “Particulate materials” (Nektar Therapeutics, priority 2002, dated 2021).

What was measured:
Type in all cases: physicochemical
[1] = Electrostatic charge in Faraday well (Example 3)
Source text: Surface charge was examined by placing weighed portions of the samples in a Faraday well to measure their electrostatic charge.

[2] = Simple adhesion test in rotated glass jar (Example 3); conditions: glass jar rotated for 5 minutes
Procedure: In this test, a small quantity of powder was weighed into a screw topped glass jar and the jar rotated for 5 minutes. The non-adhering powder was then tipped from the jar and weighed and the percentage powder adhering to the walls of the jar calculated.

[3] = Laser diffraction HELOS/RODOS of TBS (Example 8); conditions: 2 bar
Procedure: A small amount of TBS powder was analysed using a laser diffraction RODOS/VIBRI dispersing system (HELOS/RODOS, Sympatec GmbH, Clausthal-Zellerfeld, Germany). The instrument consisted of a laser sensor HELOS and a RODOS dry-powder air-dispersion system (Sympatec GmbH, Clausthal-Zellerfeld, Germany). Different measurement ranges of the laser sensor were provided by interchangeable objectives R1 (0.1-35 μm) and R2 (0.25-87.5 μm). The rate of powder dispersion was controlled by adjusting the pressure of the compressed air flow. A pressure of 2 bar was sufficient to achieve deagglomeration of primary particles without attrition.

[4] = AEROSIZER time-of-flight of TBS (Example 8)
Procedure: The TBS samples were also analysed using an AEROSIZER™ (Amherst Process Instruments, Amherst, Mass., USA), provided with pulse jet disperser, the AERODISPERSER™, to introduce the powders to the instrument. The measurement range of the AEROSIZER™ is nominally from 0.2 to 200 μm of aerodynamic diameter with the standard 750 μm diameter tapered nozzle. The micronized and SEDS™ TBS samples were analyzed for 300 seconds in triplicate using normal deagglomeration conditions, feed rate (5000 particles per second) and medium shear force (0.5 psi).

[5] = Differential scanning calorimetry (Example 8); conditions: DSC, 10° C. min^−1
Procedure: Prior to sample analysis, a baseline was obtained which was used as a background. […] Temperature and enthalpy were calibrated with the standard materials indium (melting point=156.6° C.) and zinc (melting point=419.5° C.). Samples (1-10) were accurately weighed into pierced, crimped aluminium pans and heated at 10° C. min^−1 over a heating range of 25-290° C. under a nitrogen purge. A chiller unit was used in conjunction with the calorimeter to attain the lower temperatures.

[6] = Inverse gas chromatography of TBS (Example 8)
Procedure: An empty GC column was uniformly packed with the powder of interest (TBS). Pre-silanized commercially available straight glass columns of 30 cm length with a 3 mm internal diameter were used in this investigation. The silanation procedure was necessary to minimize active sites on the inner glass surfaces, which strongly interact with polar probes. Each column was packed at the detector end with a small amount of silanised glass wool, was clipped to a stand and powder was added through a glass funnel with the aid of a mechanical column packer (tapping) to improve powder flow and remove any air gaps. […] A. Hewlett Packard 6890 Series Gas Chromatograph (GC) (Hewlett Packard, Penna, USA) oven equipped with an autosampler was used to control the solvent temperature. The 6890 GC data acquisition system was used to record data from a thermal conductivity detector (TCD) and flame ionisation detector (FID) with the instrument modified for IGC by Surface Measurement Systems (SMS), Manchester, UK. The combination of detectors allowed sensitive analysis of both organic vapour elution and water (although RH was not raised above 0% for these experiments).
The whole system was fully automated by control software (SMS iGC Controller v1.3) and the data analyzed using SMS iGC Analysis macros. Prior to analysis, each column was equilibrated at 30° C. and 0% relative humidity (RH) for 5 hours by passing dry helium gas through the column. Helium gas was also used as the carrier gas. Hydrogen and compressed air flow rates were set at 40 and 450 ml min respectively for the FID. The chromatograph injection port was maintained at 80° C., TCD detector at 150° C. and the FID detector at 150° C. Column temperature was set at 30° C. throughout analysis. Data were obtained by flowing helium gas at 10 ml min^−1 through the sinalized glass column packed with a known weight of powdered material and injecting small amounts (concentration P/Po=0.05) of a range of probe vapors with different polarities. The retention times of the probes were measured using SMS iGC Controller v1.3 software, at infinite dilution or near zero surface coverage (equivalent to 10^−4-10^−7 μl of liquid) where retention is independent of the quantity of probe injected. For each sample, two columns were prepared and analysed by employing a method based on standard settings, which allows the precise control and measurement of experimental variables. This is essential in producing meaningful results. The data were used to calculate the dispersive and non-dispersive forces acting at TBS particle surfaces using the method developed by Schultz and co-workers (J. Schultz, L. Lavielle and C. Martin. The role of the interface in carbon fibre-epoxy composites, J. Adhesion, 23, 45-60 (1987)).

Electrostatic Charge (nC/g) [1] [nC/g]	Relative Powder Adhesion (to container walls) [2]	Sympatec D4, 3 (μm) [3] [μm]	Aerosizer D4, 3 (μm) [4] [μm]	Enthalpy of Fusion [5] [J/g]	KA [6]	γs^D mJm^−2 ([6]; 30° C., 0% RH) [mJm^−2]	−ΔGA^SP (kJ/mol) Acetone ([6]; probe acetone) [kJ/mol]	−ΔGA^SP (kJ/mol) Chloroform ([6]; probe chloroform) [kJ/mol]	−ΔGA^SP (kJ/mol) Dioxane ([6]; probe dioxane) [kJ/mol]	−ΔGA^SP (kJ/mol) Ethyl acetate ([6]; probe ethyl acetate) [kJ/mol]	−ΔGA^SP (kJ/mol) Toluene ([6]; probe toluene) [kJ/mol]	Substance
−42.6	18.6	3.04	2.69	121.76	0.892	58.61	12.57	1.79	15.96	16.01	3.42	salbutamol sulphate [Micronised, reference compound]
−0.2	1.0	–	–	–	–	–	–	–	–	–	–	salbutamol sulphate [SEDS]
−23.1	8.6	–	–	–	–	–	–	–	–	–	–	salbutamol sulphate [Unprocessed]
